system: Anopheles stephensi; experiment: Anopheles stephensi treated well plate contact test: knockdown and mortality; format: in vivo; details: Anopheles stephensi; test compound 0.2 ppm, without TFNA-AM, after 24 hours; read-out: mortality % 24, without TFNA-AM
Protocol: Examples Anopheles stephensi (Indian Malaria Mosquito)
The individual wells of twelve (12) well tissue culture plates were treated with 200 μl of an ethanol solution containing a test compound of Table 1 or Table 2 at a defined concentration and repeated with also 200 μl of an ethanol solution containing in addition 2 ppm TFNA-AM. Once the deposits were dry, five non-blood fed adult female Anopheles stephensi (between two to five day old) were added to each well, and sustained with a 10% sucrose solution in a cotton wool plug. Assessment of the knockdown after 1 hour, and mortality after 24 and 48 hours was carried out.
In case of multiple tests, the mean value is reported.

Q: CCOc1cc(C(C)(C)C)ccc1C1COC(c2c(F)cccc2F)=N1 (stereo not drawn) [Etoxazole] was tested. Which mortality at 0.2 ppm did it give?
A: The mortality at 0.2 ppm was 0%.

Q: With CCOC(=O)NCCOc1ccc(Oc2ccccc2)cc1 [Fenoxycarb] as the compound, how does the mortality at 0.2 ppm read?
A: The mortality at 0.2 ppm was 0%.

same assay, conditions: Anopheles stephensi; test compound 0.2 ppm, without TFNA-AM, after 48 hours; read-out: mortality % 48, without TFNA-AM

Q: Which mortality at 0.2 ppm does the source give for CCOc1cc(C(C)(C)C)ccc1C1COC(c2c(F)cccc2F)=N1 (stereo not drawn) [Etoxazole] here?
A: The mortality at 0.2 ppm was 0%.

Q: With CCOC(=O)NCCOc1ccc(Oc2ccccc2)cc1 [Fenoxycarb] as the compound, how does the mortality at 0.2 ppm read?
A: The mortality at 0.2 ppm was 0%.

same assay, conditions: Anopheles stephensi; test compound 0.2 ppm, without TFNA-AM, knockdown after 1 hour; read-out: Knock Down, without TFNA-AM

Q: Which pest or weed control at 0.2 ppm does the source give for CCOc1cc(C(C)(C)C)ccc1C1COC(c2c(F)cccc2F)=N1 (stereo not drawn) [Etoxazole] here?
A: Its pest or weed control at 0.2 ppm is 0%.

Q: For CCOC(=O)NCCOc1ccc(Oc2ccccc2)cc1 [Fenoxycarb], which pest or weed control at 0.2 ppm is on record?
A: The pest or weed control at 0.2 ppm was 0%.

same assay, conditions: Anopheles stephensi; test compound 2 ppm, without TFNA-AM, after 24 hours; read-out: mortality % 24, without TFNA-AM

Q: Which mortality at 2 ppm does the source give for CCOc1cc(C(C)(C)C)ccc1C1COC(c2c(F)cccc2F)=N1 (stereo not drawn) [Etoxazole] here?
A: The mortality at 2 ppm was 0%.

Q: CCOC(=O)NCCOc1ccc(Oc2ccccc2)cc1 [Fenoxycarb] was tested. Which mortality at 2 ppm did it give?
A: The mortality at 2 ppm was 0%.

same assay, conditions: Anopheles stephensi; test compound 2 ppm, without TFNA-AM, after 48 hours; read-out: mortality % 48, without TFNA-AM

Q: How did the mortality at 2 ppm turn out when CCOc1cc(C(C)(C)C)ccc1C1COC(c2c(F)cccc2F)=N1 (stereo not drawn) [Etoxazole] was run?
A: The mortality at 2 ppm was 0%.

Q: CCOC(=O)NCCOc1ccc(Oc2ccccc2)cc1 [Fenoxycarb] was tested. Which mortality at 2 ppm did it give?
A: Its mortality at 2 ppm is 0%.

same assay, conditions: Anopheles stephensi; test compound 2 ppm, without TFNA-AM, knockdown after 1 hour; read-out: Knock Down, without TFNA-AM

Q: With CCOc1cc(C(C)(C)C)ccc1C1COC(c2c(F)cccc2F)=N1 (stereo not drawn) [Etoxazole] as the compound, how does the pest or weed control at 2 ppm read?
A: The pest or weed control at 2 ppm was 0%.

Q: How did the pest or weed control at 2 ppm turn out when CCOC(=O)NCCOc1ccc(Oc2ccccc2)cc1 [Fenoxycarb] was run?
A: The pest or weed control at 2 ppm was 0%.

same assay, conditions: Anopheles stephensi; test compound 20 ppm, without TFNA-AM, after 24 hours; read-out: mortality % 24, without TFNA-AM

Q: For CCOc1cc(C(C)(C)C)ccc1C1COC(c2c(F)cccc2F)=N1 (stereo not drawn) [Etoxazole], which mortality at 20 ppm is on record?
A: Its mortality at 20 ppm is 0%.

Q: For CCOC(=O)NCCOc1ccc(Oc2ccccc2)cc1 [Fenoxycarb], which mortality at 20 ppm is on record?
A: Its mortality at 20 ppm is 0%.

same assay, conditions: Anopheles stephensi; test compound 20 ppm, without TFNA-AM, after 48 hours; read-out: mortality % 48, without TFNA-AM

Q: With CCOc1cc(C(C)(C)C)ccc1C1COC(c2c(F)cccc2F)=N1 (stereo not drawn) [Etoxazole] as the compound, how does the mortality at 20 ppm read?
A: The mortality at 20 ppm was 0%.

Q: CCOC(=O)NCCOc1ccc(Oc2ccccc2)cc1 [Fenoxycarb] was tested. Which mortality at 20 ppm did it give?
A: The mortality at 20 ppm was 0%.

same assay, conditions: Anopheles stephensi; test compound 20 ppm, without TFNA-AM, knockdown after 1 hour; read-out: Knock Down, without TFNA-AM

Q: CCOc1cc(C(C)(C)C)ccc1C1COC(c2c(F)cccc2F)=N1 (stereo not drawn) [Etoxazole] was tested. Which pest or weed control at 20 ppm did it give?
A: The pest or weed control at 20 ppm was 0%.

Q: For CCOC(=O)NCCOc1ccc(Oc2ccccc2)cc1 [Fenoxycarb], which pest or weed control at 20 ppm is on record?
A: Its pest or weed control at 20 ppm is 20%.

same assay, conditions: Anopheles stephensi; test compound 200 ppm, without TFNA-AM, after 24 hours; read-out: mortality % 24, without TFNA-AM

Q: Which mortality at 200 ppm does the source give for CCOc1cc(C(C)(C)C)ccc1C1COC(c2c(F)cccc2F)=N1 (stereo not drawn) [Etoxazole] here?
A: Its mortality at 200 ppm is 0%.

Q: CCOC(=O)NCCOc1ccc(Oc2ccccc2)cc1 [Fenoxycarb] was tested. Which mortality at 200 ppm did it give?
A: The mortality at 200 ppm was 0%.

same assay, conditions: Anopheles stephensi; test compound 200 ppm, without TFNA-AM, after 48 hours; read-out: mortality % 48, without TFNA-AM

Q: How did the mortality at 200 ppm turn out when CCOc1cc(C(C)(C)C)ccc1C1COC(c2c(F)cccc2F)=N1 (stereo not drawn) [Etoxazole] was run?
A: Its mortality at 200 ppm is 0%.

Q: How did the mortality at 200 ppm turn out when CCOC(=O)NCCOc1ccc(Oc2ccccc2)cc1 [Fenoxycarb] was run?
A: The mortality at 200 ppm was 0%.

same assay, conditions: Anopheles stephensi; test compound 200 ppm, without TFNA-AM, knockdown after 1 hour, adult females; read-out: Knock Down, without TFNA-AM

Q: Which pest or weed control at 200 ppm does the source give for CCOc1cc(C(C)(C)C)ccc1C1COC(c2c(F)cccc2F)=N1 (stereo not drawn) [Etoxazole] here?
A: The pest or weed control at 200 ppm was 0%.

Q: Which pest or weed control at 200 ppm does the source give for CCOC(=O)NCCOc1ccc(Oc2ccccc2)cc1 [Fenoxycarb] here?
A: The pest or weed control at 200 ppm was 20%.

same assay, conditions: test compound 0.2 ppm plus 2 ppm TFNA-AM, after 24 hours

Q: How did the “mortality % 24, with TFNA-AM” value turn out when CCOc1cc(C(C)(C)C)ccc1C1COC(c2c(F)cccc2F)=N1 (stereo not drawn) [Etoxazole] was run?
A: The value was 40%.

Q: For CCOC(=O)NCCOc1ccc(Oc2ccccc2)cc1 [Fenoxycarb], which “mortality % 24, with TFNA-AM” value is on record?
A: Its value is 40%.

same assay, conditions: test compound 0.2 ppm plus 2 ppm TFNA-AM, after 48 hours

Q: For CCOc1cc(C(C)(C)C)ccc1C1COC(c2c(F)cccc2F)=N1 (stereo not drawn) [Etoxazole], which “mortality % 48, with TFNA-AM” value is on record?
A: Its value is 40%.

Q: CCOC(=O)NCCOc1ccc(Oc2ccccc2)cc1 [Fenoxycarb] was tested. Which “mortality % 48, with TFNA-AM” value did it give?
A: Its value is 40%.

same assay, conditions: test compound 0.2 ppm plus 2 ppm TFNA-AM, knockdown after 1 hour

Q: For CCOc1cc(C(C)(C)C)ccc1C1COC(c2c(F)cccc2F)=N1 (stereo not drawn) [Etoxazole], which “Knock Down, with TFNA-AM” value is on record?
A: The value was 100%.

Q: For CCOC(=O)NCCOc1ccc(Oc2ccccc2)cc1 [Fenoxycarb], which “Knock Down, with TFNA-AM” value is on record?
A: The value was 100%.

same assay, conditions: test compound 2 ppm plus 2 ppm TFNA-AM, after 24 hours

Q: For CCOc1cc(C(C)(C)C)ccc1C1COC(c2c(F)cccc2F)=N1 (stereo not drawn) [Etoxazole], which “mortality % 24, with TFNA-AM” value is on record?
A: Its value is 60%.

Q: CCOC(=O)NCCOc1ccc(Oc2ccccc2)cc1 [Fenoxycarb] was tested. Which “mortality % 24, with TFNA-AM” value did it give?
A: Its value is 80%.

same assay, conditions: test compound 2 ppm plus 2 ppm TFNA-AM, after 48 hours

Q: For CCOc1cc(C(C)(C)C)ccc1C1COC(c2c(F)cccc2F)=N1 (stereo not drawn) [Etoxazole], which “mortality % 48, with TFNA-AM” value is on record?
A: Its value is 40%.

Q: How did the “mortality % 48, with TFNA-AM” value turn out when CCOC(=O)NCCOc1ccc(Oc2ccccc2)cc1 [Fenoxycarb] was run?
A: Its value is 80%.

same assay, conditions: test compound 2 ppm plus 2 ppm TFNA-AM, knockdown after 1 hour

Q: Which “Knock Down, with TFNA-AM” value does the source give for CCOc1cc(C(C)(C)C)ccc1C1COC(c2c(F)cccc2F)=N1 (stereo not drawn) [Etoxazole] here?
A: Its value is 100%.

Q: Which “Knock Down, with TFNA-AM” value does the source give for CCOC(=O)NCCOc1ccc(Oc2ccccc2)cc1 [Fenoxycarb] here?
A: The value was 100%.

same assay, conditions: test compound 20 ppm plus 2 ppm TFNA-AM, after 24 hours

Q: Which “mortality % 24, with TFNA-AM” value does the source give for CCOc1cc(C(C)(C)C)ccc1C1COC(c2c(F)cccc2F)=N1 (stereo not drawn) [Etoxazole] here?
A: The value was 60%.

Q: For CCOC(=O)NCCOc1ccc(Oc2ccccc2)cc1 [Fenoxycarb], which “mortality % 24, with TFNA-AM” value is on record?
A: The value was 80%.

same assay, conditions: test compound 20 ppm plus 2 ppm TFNA-AM, after 48 hours

Q: For CCOc1cc(C(C)(C)C)ccc1C1COC(c2c(F)cccc2F)=N1 (stereo not drawn) [Etoxazole], which “mortality % 48, with TFNA-AM” value is on record?
A: The value was 60%.

Q: For CCOC(=O)NCCOc1ccc(Oc2ccccc2)cc1 [Fenoxycarb], which “mortality % 48, with TFNA-AM” value is on record?
A: Its value is 80%.

same assay, conditions: test compound 20 ppm plus 2 ppm TFNA-AM, knockdown after 1 hour

Q: Which “Knock Down, with TFNA-AM” value does the source give for CCOc1cc(C(C)(C)C)ccc1C1COC(c2c(F)cccc2F)=N1 (stereo not drawn) [Etoxazole] here?
A: The value was 100%.

Q: Which “Knock Down, with TFNA-AM” value does the source give for CCOC(=O)NCCOc1ccc(Oc2ccccc2)cc1 [Fenoxycarb] here?
A: Its value is 100%.

same assay, conditions: test compound 200 ppm plus 2 ppm TFNA-AM, after 24 hours

Q: How did the “mortality % 24, with TFNA-AM” value turn out when CCOc1cc(C(C)(C)C)ccc1C1COC(c2c(F)cccc2F)=N1 (stereo not drawn) [Etoxazole] was run?
A: The value was 80%.

Q: Which “mortality % 24, with TFNA-AM” value does the source give for CCOC(=O)NCCOc1ccc(Oc2ccccc2)cc1 [Fenoxycarb] here?
A: The value was 80%.

same assay, conditions: test compound 200 ppm plus 2 ppm TFNA-AM, after 48 hours

Q: CCOc1cc(C(C)(C)C)ccc1C1COC(c2c(F)cccc2F)=N1 (stereo not drawn) [Etoxazole] was tested. Which “mortality % 48, with TFNA-AM” value did it give?
A: Its value is 80%.

Q: For CCOC(=O)NCCOc1ccc(Oc2ccccc2)cc1 [Fenoxycarb], which “mortality % 48, with TFNA-AM” value is on record?
A: The value was 80%.

same assay, conditions: test compound 200 ppm plus 2 ppm TFNA-AM, knockdown after 1 hour

Q: CCOc1cc(C(C)(C)C)ccc1C1COC(c2c(F)cccc2F)=N1 (stereo not drawn) [Etoxazole] was tested. Which “Knock Down, with TFNA-AM” value did it give?
A: Its value is 100%.

Q: CCOC(=O)NCCOc1ccc(Oc2ccccc2)cc1 [Fenoxycarb] was tested. Which “Knock Down, with TFNA-AM” value did it give?
A: Its value is 100%.
